Measured values published in patent US10729628B2, “Tyrosinase inhibitors” (Conopco, Inc., priority 2015, dated 2020).

Tests used:
[1] = molecular target: T1, human Tyrosinase (in the form of melanocytic extract) (Homo sapiens, UniProt P14679); experiment: Tyrosinase assay by oxidation of DOPA, human tyrosinase (melanocytic extract); type: biochemical; conditions: for OD475 nm (HME) / inhibition at 100 µM / inhibition at 1000 µM / inhibition at 10 µM / % Inhibition (HME): 37° C., 45 minutes; for OD475 nm (HME): background-corrected, uninhibited enzyme control 0.141; for inhibition at 100 µM / inhibition at 1000 µM / inhibition at 10 µM: read-out: % Inhibition (HME); for inhibit the activity of tyrosinase: summary in words, at least one of human or mushroom tyrosinase, inhibitor = colour inhibited by more than 10% of control
T1 construct: 2.5 mg/ml human melanocytic lysate OR; endogenous in cells; host or cells: human melanocytes (lysate/extract)
T1 sequence (P14679 19-529): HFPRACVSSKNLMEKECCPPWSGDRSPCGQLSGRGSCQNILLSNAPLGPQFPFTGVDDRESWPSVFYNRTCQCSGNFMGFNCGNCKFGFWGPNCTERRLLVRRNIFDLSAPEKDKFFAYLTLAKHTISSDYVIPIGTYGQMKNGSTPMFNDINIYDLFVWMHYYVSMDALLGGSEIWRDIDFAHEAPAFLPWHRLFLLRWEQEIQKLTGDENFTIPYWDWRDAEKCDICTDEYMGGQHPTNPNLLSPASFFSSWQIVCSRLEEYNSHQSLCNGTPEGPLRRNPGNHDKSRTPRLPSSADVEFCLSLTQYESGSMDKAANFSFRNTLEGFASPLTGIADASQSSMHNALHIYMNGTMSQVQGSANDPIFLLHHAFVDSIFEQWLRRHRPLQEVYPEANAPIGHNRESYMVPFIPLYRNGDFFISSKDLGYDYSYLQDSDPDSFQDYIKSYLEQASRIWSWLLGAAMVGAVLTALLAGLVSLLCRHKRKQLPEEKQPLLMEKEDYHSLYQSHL
Method: The (tyrosinase) inhibitory activity of a, b, c and d was measured by oxidation of DOPA. Each crown ether was tested against human Tyrosinase (in the form of melanocytic extract) and commercial (Worthington, USA) mushroom tyrosinase (MT), using the DOPA oxidation assay. Details of the assay mix are included in table 2. […] Assay examined the change (Optical Density) OD475 nm at 37° C., after 45 minutes reaction in a standard 96-well plate. All ON475 nm were corrected by subtracting the background OD475 nm value of the negative control sample lacking enzyme in the assay mix. […] The background effect of 10% DMSO on tyrosinase activity was also examined for calculation purposes (i.e. the ‘U’ sample).

mushroom tyrosinase (MT) = experiment: Tyrosinase assay by oxidation of DOPA, mushroom tyrosinase; type: biochemical; conditions: 37° C., 45 minutes; for OD475 nm (MT): background-corrected, uninhibited enzyme control 0.17
Method: The (tyrosinase) inhibitory activity of a, b, c and d was measured by oxidation of DOPA. Each crown ether was tested against human Tyrosinase (in the form of melanocytic extract) and commercial (Worthington, USA) mushroom tyrosinase (MT), using the DOPA oxidation assay. Details of the assay mix are included in table 2. [table] Assay examined the change (Optical Density) OD475 nm at 37° C., after 45 minutes reaction in a standard 96-well plate. All ON475 nm were corrected by subtracting the background OD475 nm value of the negative control sample lacking enzyme in the assay mix. […] The background effect of 10% DMSO on tyrosinase activity was also examined for calculation purposes (i.e. the ‘U’ sample).

| Compound | OD475 nm (HME) ([1]; 0.1 mM test compound) | inhibition at 100 µM ([1]; 0.1 mM test compound) | OD475 nm (HME) ([1]; 1 mM test compound) | inhibition at 1000 µM ([1]; 1 mM test compound) | inhibit the activity of tyrosinase [1] | % Inhibition (MT) (mushroom tyrosinase (MT); 0.1 mM test compound) | OD475 nm (MT) (mushroom tyrosinase (MT); 0.1 mM test compound) | % Inhibition (MT) (mushroom tyrosinase (MT); 1 mM test compound) | OD475 nm (MT) (mushroom tyrosinase (MT); 1 mM test compound) | OD475 nm (HME) ([1]; 0.01 mM test compound) | inhibition at 10 µM ([1]; 0.01 mM test compound) | % Inhibition (HME) ([1]; 1 mM test compound) | % Inhibition (MT) (mushroom tyrosinase (MT); 0.01 mM test compound) | OD475 nm (MT) (mushroom tyrosinase (MT); 0.01 mM test compound) | % Inhibition (HME) ([1]; 0.01 mM test compound) | % Inhibition (MT) (mushroom tyrosinase (MT); 0.25 mM test compound) | OD475 nm (MT) (mushroom tyrosinase (MT); 0.25 mM test compound) | % Inhibition (MT) (mushroom tyrosinase (MT); 0.5 mM test compound) | OD475 nm (MT) (mushroom tyrosinase (MT); 0.5 mM test compound) |
| --- | --- | --- | --- | --- | --- | --- | --- | --- | --- | --- | --- | --- | --- | --- | --- | --- | --- | --- | --- |
| O=C(O)c1ccc2c(c1)OCCOCCOCCO2 [Compound a] | 0.126 | 11% | 0.029 | 79% | inhibit the activity of at least one of human or mushroom tyrosinase | 25% | 0.128 | 60% | 0.068 |  |  |  |  |  |  |  |  |  |  |
| O=C(NC1CCCCC1)N(C(=O)c1ccc2c(c1)OCCOCCOCCO2)C1CCCCC1 [Compound b] |  |  | 0.162 |  | inhibit the activity of at least one of human or mushroom tyrosinase |  |  | 28% | 0.122 | 0.125 | 12% | No | 6% | 0.160 |  |  |  |  |  |
| O=C(O)c1ccc2c(c1)OCCOCCOCCOc1ccc(C(=O)O)cc1OCCOCCOCCO2 [Compound c] | 0.094 | 33% | 0.027 | 81% | inhibit the activity of at least one of human or mushroom tyrosinase | 5% | 0.162 | 49% | 0.087 | 0.092 | 35% |  | 9% | 0.156 |  |  |  |  |  |
| COC(=O)C(C)(C)NC(=O)C(CC(C)C)NC(=O)C(C)NC(=O)c1ccc2c(c1)OCCOCCOCCOc1ccc(C(=O)NC(C)C(=O)NC(CC(C)C)C(=O)NC(C)(C)C(=O)OC)cc1OCCOCCOCCO2 (centres unmarked) [Compound d] | 0.134 | 5% | 0.110 | 23% | inhibit the activity of at least one of human or mushroom tyrosinase | 58% | 0.071 | 69% | 0.053 | 0.144 |  |  | 19% | 0.137 | No |  |  |  |  |
| O=c1cc(CO)occ1O [Kojic acid, reference compound] |  |  |  |  |  | 23% | 0.131 |  |  |  |  |  |  |  |  | 35% | 0.111 | 51% | 0.084 |
